Data from patent EP4813993A1, “COMPOUND, PREPARATION METHOD THEREFOR, AND USE THEREOF” (Sichuan Kelun Pharmaceutical Research Institute Co., Ltd., priority 2023, dated 2025).

Tests used:
incision pain model [1] = assay: Incision pain model in ICR mice, Von Frey test; assay type: in vivo; settings: Mean + SEM, n = 10; for PWT 50% value (g) Post-surgery, Preadministration: baseline before administration; for PWT 50% value (g) Pre-surgery: baseline before surgery; for PWT 50% value (g) 0.5 h: 0.5 h after administration; for PWT 50% value (g) 2 h: 2 h after administration; for PWT 50% value (g) 4 h: 4 h after administration
Method: Experimental Example 6: Pharmacodynamic effect study of compounds in incision pain model in ICR mice Experimental animals: ICR mice, male, 28-35 g.
Compound preparation: 5% (final preparation volume) of DMSO was added to dissolve the test compound, and then 10% (final preparation volume) of Cremophor EL and 85% Saline were sequentially added.
A plantar incision pain model was established in mice via surgery before the administration and test. Mice were placed in an anesthesia induction chamber and given 3%-4% isoflurane for anesthesia induction. After the anesthesia induction, a breathing mask was applied, and the isoflurane concentration was adjusted to 1%-2% to prevent the mice from suffering pain during the surgery. Each mouse was placed in a supine position, and the surgical site was disinfected with alcohol and iodophor. Under sterile conditions, a 0.5 cm longitudinal incision was made on the left hind paw surface, 0.2 cm away from the heel, extending toward the toes. The skin and fascia were incised; the plantar muscle was separated, slightly lifted, and longitudinally incised. The skin was then sutured with 5-0 sutures and disinfected.
2. Administration and test
The Von Frey test was performed once before the surgery. On the second day after animal modeling, the test was repeated, and animals meeting the baseline requirements were selected for enrollment. The animals were randomly grouped based on the 50% PWT values, with 10 animals per group. Administration was performed under a double-blind test protocol. The 50% PWT of the animals was measured separately before administration (baseline) and at 0.5 h, 2 h, and 4 h after administration, and a single dose was administered. The model control group was given normal saline, while the compound groups were given the compounds according to the administration doses in the table below.

formalin pain model = assay: Rat formalin pain model; assay type: in vivo, SD rats; settings: for Number of pain responses 0 min / Number of pain responses 10 min / Number of pain responses 15 min / Number of pain responses 30 min / Number of pain responses 40 min / Number of pain responses 50 min / Number of pain responses 60 min: SD rats, Mean + SD, n = 10
Summary of the method: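 Male SD rats (180-200 g, n=10/group) dosed 0, 60 or 120 min before 50 µL 5% formalin into right plantar region. Pain responses counted for 1 min every 5 min over 60 min; inhibition rate relative to vehicle control group.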

incision pain model [2] = assay: Incision pain model in ICR mice, Von Frey test; assay type: in vivo; settings: 50 mg/kg single dose, Mean + SEM, n = 10
[3] = Tissue distribution study (dorsal root ganglia) in ICR mice; assay type: in vivo; settings: male, mouse, oral administration 20 mg/kg
[4] = 50 mg/kg p.o. 120 min before 5% formalin
[5] = 125 mg/kg p.o. 120 min before 5% formalin

COc1c(C2CC(C)(C(F)(F)F)SC2C(=O)Nc2ccnc(C(N)=O)c2)ccc(F)c1F (single isomer, unassigned) [Compound 139-A, 4-(3-(3,4-difluoro-2-methoxyphenyl)-5-methyl-5-(trifluoromethyl)tetrahydrothiophene-2-carboxamido)picolinamide]
PWT 50% value (g) Post-surgery, Preadministration (incision pain model [1]; 50 mg/kg group): 0.22 ± 0.03 g | PWT 50% value (g) Pre-surgery (incision pain model [1]; 50 mg/kg group): 1.39 ± 0.31 g | PWT 50% value (g) 0.5 h (incision pain model [1]; 50 mg/kg single dose): 0.74 ± 0.3 g | PWT 50% value (g) 2 h (incision pain model [1]; 50 mg/kg single dose): 1.05 ± 0.38 g | PWT 50% value (g) 4 h (incision pain model [1]; 50 mg/kg single dose): 0.74 ± 0.29 g | PWT 50% value (g) Post-surgery, Preadministration (incision pain model [1]; 125 mg/kg group): 0.22 ± 0.02 g | PWT 50% value (g) Pre-surgery (incision pain model [1]; 125 mg/kg group): 1.25 ± 0.31 g | PWT 50% value (g) 0.5 h (incision pain model [1]; 125 mg/kg single dose): 0.82 ± 0.33 g | PWT 50% value (g) 2 h (incision pain model [1]; 125 mg/kg single dose): 1.09 ± 0.32 g | PWT 50% value (g) 4 h (incision pain model [1]; 125 mg/kg single dose): 0.87 ± 0.16 g | PWT 50% value (g) AUC0-8h (incision pain model [1]; 125 mg/kg single dose): 6.08 ± 1.2 g·h | Number of pain responses 0 min (formalin pain model; [4]): 35.6±6.7 | Number of pain responses 10 min (formalin pain model; [4]): 1.7±2.5 | Number of pain responses 15 min (formalin pain model; [4]): 6.8±3.9 | Number of pain responses 30 min (formalin pain model; [4]): 15.1±4.4 | Number of pain responses 40 min (formalin pain model; [4]): 12.7±5.9 | Number of pain responses 50 min (formalin pain model; [4]): 6.1±5.2 | Number of pain responses 60 min (formalin pain model; [4]): 2.7±2.6 | Number of pain responses 0 min (formalin pain model; [5]): 25.5±13.6 | Number of pain responses 10 min (formalin pain model; [5]): 1.1±1.1 | Number of pain responses 15 min (formalin pain model; [5]): 4.3±2.7 | Number of pain responses 30 min (formalin pain model; [5]): 11.7±6.3 | Number of pain responses 40 min (formalin pain model; [5]): 4.8±3.9 | Number of pain responses 50 min (formalin pain model; [5]): 1.8±1.8 | Number of pain responses 60 min (formalin pain model; [5]): 1.8±1.2 | dose-effect relationship (formalin pain model; rat formalin pain model): relatively good dose-effect relationship | analgesic activity in the first and second phases (formalin pain model; rat formalin pain model, first phase immediately after injection, second phase about 15-20 min after): significant analgesic activity in both the first and second phases | PWT 50% value (g) AUC0-8h (incision pain model [2]): 5.45 ± 1.62 g·h | concentration at 0.25 h ([3]; Time 0.25 h): 1920 ng/g | concentration at 2 h ([3]; Time 2 h): 9380 ng/g | concentration at 12 h ([3]; Time 12 h): 2600 ng/g
